Data: paper PMC10854894, “A New Benzo[6,7]oxepino[3,2-b] Pyridine Derivative Induces Apoptosis in Canine Mammary Cancer Cell Lines” (Animals : an Open Access Journal from MDPI, 2024)
Read-outs that look alike come from different tables or passages of the source.

Columns and labels:
Assay type in all cases: cell-based, canine
REM134 cells [1] = experiment: Annexin V-FITC/PI apoptosis assay, flow cytometry; details: 48 h; for percentage of total apoptosis: untreated 5.14%
Description: (§1) The mode of cell death induced by MPOBA was evaluated using FITC Annexin V apoptosis detection kit I (BD Bioscience, San Jose, CA, USA) according to the manufacturer’s protocols. The REM134 and CMGT071020 cell lines were seeded at a density of 2 × 10^4 cells/well in a 12-well plate and allowed to grow for 24 h (60% confluency) prior to treatment with MPOBA at concentrations ranging from 0 to 200 µM for 48 h. After the incubation period, all adhering and floating cells were harvested and transferred into sterile centrifuge tubes. The cells were centrifuged at 400× g for 5 min at room temperature. The supernatant was aspirated, leaving approximately 50 µL of residual fluid in the tubes to avoid disturbing the pellets. FITC Annexin V (5 µL) and PI (5 µL) were added to the tubes containing cell pellets. The mixtures were gently vortexed and incubated for 15 min at room temperature in the dark. A binding buffer (400 µL) was added to each tube. A total of 20,000 events were acquired for each sample using a CytoFLEX flow cytometer (Beckman Coulter, Miami, FL, USA) within an hour. […] The experiment was performed with four replicates. The positive control was doxorubicin-treated CMC cells, while the negative control was 0.1% DMSO-treated CMC cells.

CMGT071020 cells [2] = experiment: Annexin V-FITC/PI apoptosis assay, flow cytometry; details: 48 h; for percentage of total apoptosis: untreated 5.97%
Description: as §1

REM134 cells [3] = experiment: Relative mRNA expression by qRT-PCR
Description: After the treatment of the cells with MPOBA at varying concentrations from 0 to 200 µM for 48 h, the total RNA was isolated using a GeneJet RNA Purification kit (Thermo Fisher Scientific, Waltham, MA, USA) according to the manufacturer’s protocol for adherent tissue culture cells using the spin-column method. The RNA’s concentration and purity (A260/A280 ratio) were spectrophotometrically determined using a NanoDrop One/OneC Microvolume UV-Vis Spectrophotometer (Thermo Fisher Scientific, Waltham, MA, USA). To remove genomic DNA contamination, the samples were treated with RQ1 RNase-Free DNase (Promega, Madison, WI, USA) according to the manufacturer’s instructions. First-strand cDNA was obtained using a SuperScript® III First-Strand Synthesis kit for reverse-transcription polymerase chain reaction (RT-PCR) (Invitrogen, Carlsbad, CA, USA) according to the manufacturer’s protocol. Briefly, total RNA (1 μg), oligo (dT) primers (50 µM), a dNTP mix (10 mM), the cDNA synthesis mix, and nuclease-free water were added to obtain a final volume of 20 µL. PCR amplification was performed using a G-Storm GS482 PCR thermal cycler (Gene Technologies, Somerset, UK) with the following reaction profile: 65 °C for 5 min, 50 °C for 50 min, 85 °C for 5 min, and 37 °C for 5 min. The relative mRNA expression levels of canine SNAIL, SLUG, TWIST, E-cadherin, N-cadherin, TP53, EGFR, BAX, and BCL-2 were normalized to canine glyceraldehyde 3-phosphate dehydrogenase (GAPDH). The relative mRNA expression levels were calculated using the 2^–∆∆ Cq method. The transcriptional levels of all genes were determined in four replicates via qRT-PCR using a CFX 96 Touch real-time PCR detection system (Bio-Rad, Hercules, CA, USA). The qRT-PCR was performed using a reaction mixture containing 2 μL of the cDNA template, 10 μL of the iTaq Universal SYBR Green Supermix (Bio-Rad, Hercules, CA, USA), and 1 μL of each primer. The qRT-PCR protocol for the SNAIL, SLUG, TWIST, EGFR, TP53, BAX, BCL-2, and GAPDH genes was carried out as follows: initial denaturation at 94 °C for 3 min, denaturation at 94 °C for 15 s, annealing at 60 °C for 30 s, and extension at 72 °C for 1 min (40 cycles), and dissociation curves were generated between 65 °C and 95 °C to assess the specificity of the amplicons. The qRT-PCR protocol for E-cadherin and N-cadherin was carried out according to Yu et al..

MDCK cells = experiment: MTT cell proliferation/cytotoxicity assay; details: Canis lupus familiaris, read-out: Half-Maximal Inhibitory Concentration (IC50)
Description: (§2) The cytotoxic effects of the three BZOP derivatives were studied via the 3-(4,5-Dimethyl-2-thiazolyl)-2,5-diphenyl-2H-tetrazolium bromide (MTT) assay. The REM134, CMGT071020, and MDCK cell lines were seeded at a density of 5 × 10^3 cells/well in 96-well plates and allowed to grow for 24 h. They were then treated with the three BZOP derivatives at various concentrations (0–300 µM) for 24 or 48 h, whereas cells treated with the culture medium containing 0.1% dimethyl sulfoxide (DMSO) were used as a negative control as the compounds were dissolved in DMSO. Subsequently, the cells were incubated with 10 µL of an MTT solution (Sigma, St. Louis, MO, USA) for 4 h. After the incubation with MTT solution, 100 µL of a solubilization solution was added to dissolve water-insoluble purple formazan crystals, and the plate was incubated overnight at 37 °C in 5% CO2. The absorbance of the formazan solution was measured using a Synergy H1 hybrid multi-mode microplate reader (BioTek, Winooski, VT, USA) at 570 nm. The experiment was conducted with four replicates, and the relative cell viability (%) of the treated cells was expressed as a percentage relative to the untreated control cells, which were considered to have 100% viability.

REM134 cells [4] = experiment: MTT cell proliferation/cytotoxicity assay; details: Canis lupus familiaris, read-out: Half-Maximal Inhibitory Concentration (IC50)
Description: as §2

CMGT071020 cells [5] = experiment: MTT cell proliferation/cytotoxicity assay; details: Canis lupus familiaris, read-out: Half-Maximal Inhibitory Concentration (IC50)
Description: as §2

[6] = REM134, 200 µM, 48 h, vs control
[7] = REM134, 48 h, treated vs untreated

Compound `Cc1ncccc1Oc1ccccc1C=O` [MPOBA, 2-((2-methylpyridin-3-yl)oxy)benzaldehyde] has a viability at 50 µM (REM134 cells [1]; Canis lupus familiaris, REM134, 50 μM, Figure 7A plot, read-out: viable cells) of 84.1%, a viability at 100 µM (REM134 cells [1]; Canis lupus familiaris, REM134, 100 μM, Figure 7A plot, read-out: viable cells) of 75.5% and a viability at 200 µM (REM134 cells [1]; Canis lupus familiaris, REM134, 200 μM, Figure 7A plot, read-out: viable cells) of 69.6%. The “percentage of total apoptosis” value (REM134 cells [1]; REM134, 100 µM) was 23.6%, the “percentage of total apoptosis” value (REM134 cells [1]; REM134, 200 µM) was 28.75% and the “percentage of total apoptosis” value (CMGT071020 cells [2]; CMGT071020, 100 µM) was 21.88%. The “percentage of total apoptosis” value (CMGT071020 cells [2]; CMGT071020, 200 µM) was 27.07%, the viability at 50 µM (CMGT071020 cells [2]; Canis lupus familiaris, CMGT071020, 50 μM, Figure 7A plot, read-out: viable cells) was 80.6% and the viability at 100 µM (CMGT071020 cells [2]; Canis lupus familiaris, CMGT071020, 100 μM, Figure 7A plot, read-out: viable cells) was 72.9%. For the same compound, the viability at 200 µM (CMGT071020 cells [2]; Canis lupus familiaris, CMGT071020, 200 μM, Figure 7A plot, read-out: viable cells) was 63.4%, the “BAX mRNA expression level” value (REM134 cells [3]; [6]) was “dramatically increased” and the “BCL-2 mRNA expression level” value (REM134 cells [3]; [6]) was “significantly decreased”. The “TP53 mRNA expression level” value (REM134 cells [3]; [6]) was “significantly increased”, the “SLUG mRNA expression level” value (REM134 cells [3]; [7]) was “not significantly different” and the “TWIST mRNA expression level” value (REM134 cells [3]; [7]) was “not significantly different”. The “E-cadherin mRNA expression level” value (REM134 cells [3]; REM134, 48 h, vs control) was “upregulation”, the “EGFR mRNA expression level” value (REM134 cells [3]; REM134, 48 h, vs control) was “significantly decreased” and the “N-cadherin mRNA expression level” value (REM134 cells [3]; REM134, 48 h, vs control) was “significant downregulation”. For the same compound, the “SNAIL mRNA expression level” value (REM134 cells [3]; REM134, 48 h, vs control) was “significant downregulation”, the IC50 (MDCK cells; 24 h) was over 300 µM and the IC50 (MDCK cells; 48 h) was 267 µM. The IC50 (REM134 cells [4]; REM134, 24 h) was 265 µM, the IC50 (REM134 cells [4]; REM134, 48 h) was 87 µM and the IC50 (CMGT071020 cells [5]; CMGT071020, 24 h) was over 300 µM. The IC50 (CMGT071020 cells [5]; CMGT071020, 48 h) was 104 µM.
